Data on two compounds can be found in ChEMBL document CHEMBL4419178, “Yap1 inhibitors that target the interaction of yap1 with oct4” (2018).

One series has as its system NCI-H2286. Description: Cytotoxicity in human NCI-H2286 cells assessed as reduction in cell viability at 5 to 50 uM incubated for 96 hrs by MTT assay. The class given is functional, cell-based. A general note: Formazan colour is commonly taken as a measure of viable cells.
Series [1] concerns the target Transcriptional coactivator YAP1 (Homo sapiens) (UniProt P46937). Description: Inhibition of YAP1 (unknown origin) assessed as disruption in YAP1/OCT4 interaction at 50 uM by cell based assay.
Series [2] has the same target. Briefly: Inhibition of YAP1 in human NCI-H1650 cells assessed as disruption in YAP1/OCT4 interaction at 20 to 50 uM incubated for 48 hrs by proximity ligation assay. The class given is cell-based.
Series [3] relates to NCI-H1650. Description: Cytotoxicity in human NCI-H1650 cells assessed as reduction in cell viability at 20 to 50 uM incubated for 24 hrs followed by medium replacement with RPMI medium with 10% FCS for 48 hrs by MTT assay. The class given is functional, cell-based.
Series [4] has as its target Transcriptional coactivator YAP1 (Homo sapiens) (UniProt P46937). Description: Inhibition of YAP1 (unknown origin) assessed as disruption in YAP1/OCT4 interaction at 10 uM by ELISA relative to control. On the technique in general: ELISA stands for enzyme-linked immunosorbent assay.
Series [5] can be described thus: Lipophilicity, logP of the compound. The class given is physicochemical. Particulars: octanol/water.
The subject of another series is NCI-H2170. Description: Cytotoxicity in human NCI-H2170 cells assessed as reduction in cell viability at 5 to 50 uM incubated for 96 hrs by MTT assay. The class given is functional, cell-based.
Series [6] is described as follows: Cytotoxicity in human cancer associated fibroblasts at 20 to 50 uM incubated for 24 to 48 hrs by cytotracker-red/green dye staining based immunofluorescence microscopy.
Series [7] has as its system NCI-H1650. Briefly: Inhibition of self-renewal capacity in stem-like side-population cells of human NCI-H1650 cells assessed as reduction in number of spheres at 5 to 50 uM incubated for 10 days by sphere formation assay. The class given is functional, cell-based.
Series [8] has as its system NCI-H1650. Briefly: Cytotoxicity in human NCI-H1650 cells assessed as reduction in cell viability at 1 to 20 uM incubated for 72 hrs by MTT assay. The class given is functional, cell-based.
Series [9] concerns NCI-H1650. Briefly: Inhibition of YAP1 in human NCI-H1650 cells assessed as disruption in YAP1/TEAD2 interaction at 20 to 50 uM incubated for 48 hrs by proximity ligation assay. The class given is cell-based.
The next series has as its system A549. Description: Cytotoxicity in human A549 cells assessed as reduction in cell viability at 1 to 20 uM incubated for 72 hrs by MTT assay. The class given is functional, cell-based.
Series [10] concerns NCI-H1650. Description: Cytotoxicity in human NCI-H1650 cells assessed as induction of cell killing in presence of cancer associated fibroblasts at 20 to 50 uM incubated for 24 to 48 hrs by cytotracker-red/green dye staining based immunofluorescence microscopy. The class given is functional.
For series [11], the system named is NCI-H1650. Description: Cytotoxicity in human NCI-H1650 cells assessed as reduction in cell viability at 20 to 50 uM incubated for 72 hrs by MTT assay. The class given is functional, cell-based.
In series [12] the test system is NCI-H1650. Description: Inhibition of self-renewal capacity in stem-like side-population cells of human NCI-H1650 cells assessed as reduction in number of spheres at 1 to 20 uM incubated for 10 days by sphere formation assay. The class given is functional, cell-based.
The target in series [13] is Transcriptional coactivator YAP1 (Homo sapiens) (UniProt P46937). Description: Inhibition of YAP1 (unknown origin) assessed as disruption in YAP1/OCT4 interaction at 5 uM by ELISA relative to control.
Sequence of Transcriptional coactivator YAP1 (Homo sapiens) (P46937 whole entry): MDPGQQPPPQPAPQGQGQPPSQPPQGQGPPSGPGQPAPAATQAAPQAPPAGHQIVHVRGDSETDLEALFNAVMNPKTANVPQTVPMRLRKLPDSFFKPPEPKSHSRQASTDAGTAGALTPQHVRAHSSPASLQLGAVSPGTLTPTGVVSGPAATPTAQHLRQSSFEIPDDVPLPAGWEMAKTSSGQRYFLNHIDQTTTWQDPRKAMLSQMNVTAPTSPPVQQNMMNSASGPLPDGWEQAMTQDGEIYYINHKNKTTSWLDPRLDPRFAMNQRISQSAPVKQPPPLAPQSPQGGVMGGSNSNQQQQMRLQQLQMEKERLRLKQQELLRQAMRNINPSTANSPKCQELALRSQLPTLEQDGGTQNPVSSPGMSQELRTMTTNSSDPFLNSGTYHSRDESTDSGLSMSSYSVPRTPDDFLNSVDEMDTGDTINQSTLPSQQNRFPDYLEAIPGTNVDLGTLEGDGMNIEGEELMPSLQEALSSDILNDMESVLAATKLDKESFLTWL

The source made the active and inactive calls. The calls are words filed in the database; no cut-off is given here. Where only a bound is given, the exact number is not on record here.

Regarding `COC(=O)[C@H](Cc1ccc(OCc2ccccc2)cc1)NC(=O)CC1CCN(C(=O)CCc2ccccc2)CC1`, the result in the series on NCI-H2286, in the series on NCI-H1650 [3], with NCI-H2170, in the series with NCI-H1650 [8], with A549 and with NCI-H1650 [10] was Active. Moreover, the result in the series on NCI-H1650 [11] was Active. The inhibition in [1] and in series [4] was 90% each time. For the same compound, the inhibition entry (in [2]; with NCI-H1650 [7]; in the series on NCI-H1650 [9]) was “Active” in each case. For the same compound, the logP (as a rule, the decadic logarithm of the partition coefficient of the neutral form, usually between octanol and water) in series [5] was found to be 4.7. In addition, the Activity entry in series [6] was “Non-Toxic”.

In the case of `COC(=O)[C@H](Cc1ccc(OCc2ccccc2)cc1)NC(=O)CC1CCN(C(=O)OC(C)(C)C)CC1`, the results for the inhibition in series [1], in series [4] and in [13] were above 75%, 80.8% and 72.6%, respectively. Moreover, the inhibition (commonly the percentage by which the read-out fell short of the control) with NCI-H1650 [12] is “Active”. In [5], this compound returned a logP of 3.9 to 3.94.
